This passage reports IC50 results from US10792377B2, “Compounds and method for imaging cancer” (Vanderbilt University, priority 2017, dated 2020).

One may read the IC50 as the concentration at which inhibition is half-maximal.

Read-outs that look alike come from different tables or passages of the source.

For one test, the target named is T1, ovine COX-1 (Ovis aries, UniProt P05979).
T1 sequence (P05979 25-600): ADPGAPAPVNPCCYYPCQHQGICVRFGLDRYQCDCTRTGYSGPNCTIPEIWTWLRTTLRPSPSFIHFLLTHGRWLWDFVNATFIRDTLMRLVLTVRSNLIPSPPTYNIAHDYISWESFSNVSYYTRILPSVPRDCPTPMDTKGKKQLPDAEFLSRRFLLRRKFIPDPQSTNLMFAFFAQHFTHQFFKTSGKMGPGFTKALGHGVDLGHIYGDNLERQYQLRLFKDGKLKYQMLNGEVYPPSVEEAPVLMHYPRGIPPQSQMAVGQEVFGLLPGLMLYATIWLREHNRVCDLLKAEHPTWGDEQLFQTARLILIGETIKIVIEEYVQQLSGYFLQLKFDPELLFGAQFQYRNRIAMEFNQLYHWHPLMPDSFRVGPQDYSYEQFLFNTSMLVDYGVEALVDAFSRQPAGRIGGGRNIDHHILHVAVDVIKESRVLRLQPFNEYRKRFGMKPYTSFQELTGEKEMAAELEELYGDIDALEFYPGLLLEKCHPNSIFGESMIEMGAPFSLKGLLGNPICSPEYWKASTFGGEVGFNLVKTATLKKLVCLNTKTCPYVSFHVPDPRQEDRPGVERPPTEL
Briefly: In vitro purified COX-1 inhibition assay (TLC, 14C-arachidonic acid). It is filed as biochemical. The procedure: The in vitro cyclooxygenase (ovine COX-1 or human COX-2) inhibitory activities of these probes were tested by a previously described TLC assay (FIGS. 19-21). Briefly, reaction mixtures of 200 μL consisted of hematin-reconstituted protein in 100 mM Tris-HCl, pH 8.0, 500 μM phenol, and [1-^14C]arachidonic acid (50 μM, about 55-57 mCi/mmol, Perkin Elmer).
Inhibition Assay Using Purified COX-1 and COX-2. Inhibition of purified ovine COX-1 or mouse COX-2 by test compounds was assayed by a previously described method, which quantifies the conversion of [1-^14C]arachidonic acid to [1-^14C]prostaglandin products. Reaction mixtures of 200 ∝L consisted of hematin-reconstituted protein in 100 mM Tris-HCl, pH 8.0, 500 μM phenol, and [1-^14C]arachidonic acid (50 μM, ˜55-57 mCi/mmol, Perkin Elmer). […] Reactions were terminated by solvent extraction in diethyl ether:methanol:1 M citrate buffer, pH 4.0 (30:4:1). The phases were separated by centrifugation at 2000 g for 2 min, and the organic phase was spotted on a thin-layer chromatography plate (EMD Kieselgel 60, VWR). The plate was developed in ethyl acetate:methylene chloride:glacial AcOH (75:25:1) at 4° C. Radiolabeled products were quantified with a radioactivity scanner (Bioscan, Inc., Washington, D.C.).

Another test addresses T2, hCOX-2 in 1483 cells (Homo sapiens, UniProt P35354).
T2 construct: cells that express high levels of COX-2 were selected; endogenous in cells; host or cells: 1483 human head and neck squamous cell carcinoma (HNSCC) cells
T2 sequence (P35354 18-604): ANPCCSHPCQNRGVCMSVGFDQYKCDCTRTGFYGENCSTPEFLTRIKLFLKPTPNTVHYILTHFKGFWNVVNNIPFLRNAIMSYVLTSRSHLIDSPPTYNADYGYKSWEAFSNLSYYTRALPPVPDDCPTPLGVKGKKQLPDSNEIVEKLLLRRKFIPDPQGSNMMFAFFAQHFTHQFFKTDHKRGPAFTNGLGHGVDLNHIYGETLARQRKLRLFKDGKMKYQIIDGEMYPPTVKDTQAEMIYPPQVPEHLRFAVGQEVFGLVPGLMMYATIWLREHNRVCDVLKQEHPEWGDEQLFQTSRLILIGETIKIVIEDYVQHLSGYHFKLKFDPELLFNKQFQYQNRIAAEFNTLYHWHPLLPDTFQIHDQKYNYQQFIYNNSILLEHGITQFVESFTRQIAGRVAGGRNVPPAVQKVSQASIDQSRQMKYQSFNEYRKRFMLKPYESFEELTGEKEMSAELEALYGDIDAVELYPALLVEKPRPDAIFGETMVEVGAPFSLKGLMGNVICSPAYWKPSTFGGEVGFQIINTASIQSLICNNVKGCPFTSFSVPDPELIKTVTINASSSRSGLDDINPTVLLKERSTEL
Briefly: Intact cell COX-2 inhibition assay in 1483 HNSCC cells. It is filed as cell-based. The procedure: Following the promising results from the purified enzyme assay, the ability of compound 1 to inhibit COX-2 in intact cells was examined using a previously reported method. 1483 human head and neck squamous cell carcinoma (1483 HNSCC) cells that express high levels of COX-2 were selected. […]
Cell Culture and In Vitro Intact Cell Metabolism Assay. Inhibition of COX-2 in intact cells by test compounds was assayed by a previously described method. Human 1483 head and neck squamous cell carcinoma (HNSCC) cells (passage 8-18, mycoplasma negative by a polymerase chain reaction detection method) were cultured in DMEM/F12+10% fetal bovine serum+Antibiotic/Antimycotic in 6-well plates to 60% confluence. […] Reactions were terminated and analyzed by thin layer chromatography as described above.

For the compound `COc1ccc2c(c1)c(CC(=O)NCCCCNC(=O)c1ccc(C3=c4cc5c6c(c4Oc4c3cc3c7c4CCCN7CCC3)CCC[N+]=6CCC5)c(C(=O)[O-])c1)c(C)n2C(=O)c1ccc(Cl)cc1` [Fluorocoxib A, reference compound], the 50% inhibitory concentration (IC50) on ovine COX-1 (high throughput screening of fluorocoxib and chemocoxib libraries, read-out: purified COX-1 IC50) is over 25000 nM; on ovine COX-1 (purified ovine COX-1 (22.5 nM), inhibitor 20 min, then 1-14C-AA (50 μM) 37° C. 30 s, duplicates, read-out: oCOX-1 IC50) it was over 25000 nM; on hCOX-2 in 1483 cells (high throughput screening, intact cancer cells, read-out: COX-2 positive 1483 HNSCC cells IC50), 300 nM.
Consider `COc1ccc2c(c1)c(CC(=O)NCCCCNC(=O)c1ccc(C3=c4cc5c6c(c4Oc4c3cc3c7c4CCCN7CCC3)CCC[N+]=6CCC5)c(C(=O)NC3CC(C)(C)N([O])C(C)(C)C3)c1)c(C)n2C(=O)c1ccc(Cl)cc1` [Compound 1], for which the IC50 was over 25000 nM at ovine COX-1; 280 nM on hCOX-2 in 1483 cells (COX-2 IC50 in intact cells, 1483 HNSCC cells, compound 30 min 37° C., then [1-14C]-arachidonic acid 10 μM 20 min); 285 nM against hCOX-2 in 1483 cells (hCOX-2 IC50, 1483 cells, 8 μM 14C-AA, 30 min at 37° C.).
